Columns and labels:
Type in all cases: cell-based
chicken CTR + RAMP1 = test: cAMP/PKA pGL3-CRE-luciferase reporter assay, CTR + RAMP1 in CHO cells; details: 10^−12 M to 10^−6 M, 6 h, mean ± SEM, n = 3, read-out: EC50, cAMP/PKA signaling pathway
Description: (§1) Chinese hamster ovary (CHO) cells were cultured in Dulbecco’s modified Eagle’s medium (DMEM) supplemented with 10% (vol/vol) fetal bovine serum (HyClone, Logan, UT, USA), 100 U/mL penicillin G and 100 μg/mL streptomycin. The cells were maintained in a 90 mm culture dish (Nunc, Rochester, NY, USA) and incubated at 37 °C with 5% CO2. To investigate the signaling pathways associated with each receptor in CHO cells, three different reporter systems (pGL3-CRE-luciferase, pGL4-SRE-luciferase, and pGL3-NFAT-RE-luciferase) were utilized to monitor intracellular cAMP/PKA and MAPK/ERK signaling pathways and calcium mobilization of the activated receptors, respectively.
(§2) Prior to the transfection procedure, the cells were initially cultured in 6-well plates (Nunc, Rochester, NY, USA), maintaining a seeding density of approximately 300,000 cells per well. Upon achieving approximately 70% confluence, the cells underwent a co-transfection process. […] The fluorescence activity of the luciferase in each treatment group was measured using a multimode microplate reader (TriStar LB941, Berthold Technologies, Bad Wildbad, Germany). Finally, the fluorescence activity of each treatment group was expressed as a relative increase ratio compared to the control group.

chicken CTR + RAMP3 = test: Calcium pGL3-NFAT-RE-luciferase reporter assay, CTR + RAMP3 in CHO cells; details: 10^−12 M to 10^−6 M, 6 h, mean ± SEM, n = 3, read-out: EC50, calcium signaling pathway
Description: as §1, §2

chicken CLR + RAMP2 [1] = test: Calcium pGL3-NFAT-RE-luciferase reporter assay, CLR + RAMP2 in CHO cells
Description: as §1
Prior to the transfection procedure, the cells were initially cultured in 6-well plates (Nunc, Rochester, NY, USA), maintaining a seeding density of approximately 300,000 cells per well. Upon achieving approximately 70% confluence, the cells underwent a co-transfection process. This procedure entailed the introduction of 700 ng of various luciferase reporter constructs (namely, pGL3-CRE-luciferase, pGL4-SRE-luciferase, or pGL3-NFAT-RE-luciferase) combined with 200 ng of a specific receptor plasmid (CTR or CLR) and 1000 ng of either RAMP1, RAMP2, RAMP3 expression plasmids, or alternatively, the empty pcDNA3.1 (+) vector. A volume of 5.7 μL of PEI MAX was used in 200 μL of buffer following the manufacturer’s protocol. After 24 h of incubation, the transfected CHO cells were subcultured in 96-well plates and passaged for an additional 24 h before peptide treatment. Then, the medium from the 96-well plates was removed, and the cells were treated with chicken CT/CGRP-containing medium (or untreated medium as a control) at concentrations ranging from 10^−12 M to 10^−6 M for 6 h. […] The fluorescence activity of the luciferase in each treatment group was measured using a multimode microplate reader (TriStar LB941, Berthold Technologies, Bad Wildbad, Germany). Finally, the fluorescence activity of each treatment group was expressed as a relative increase ratio compared to the control group.

chicken CTR [2] = test: Calcium pGL3-NFAT-RE-luciferase reporter assay, CTR + pcDNA in CHO cells; details: 10^−12 M to 10^−6 M, 6 h, mean ± SEM, n = 3, read-out: EC50, calcium signaling pathway
Description: as §1, §2

chicken CLR + RAMP3 [3] = test: MAPK/ERK pGL4-SRE-luciferase reporter assay, CLR + RAMP3 in CHO cells; details: 10^−12 M to 10^−6 M, 6 h, mean ± SEM, n = 3, read-out: EC50, MAPK/ERK signaling pathway
Description: as §1, §2

chicken CTR [4] = test: cAMP/PKA pGL3-CRE-luciferase reporter assay, CTR + pcDNA in CHO cells
Description: as §1
(§3) Prior to the transfection procedure, the cells were initially cultured in 6-well plates (Nunc, Rochester, NY, USA), maintaining a seeding density of approximately 300,000 cells per well. Upon achieving approximately 70% confluence, the cells underwent a co-transfection process. This procedure entailed the introduction of 700 ng of various luciferase reporter constructs (namely, pGL3-CRE-luciferase, pGL4-SRE-luciferase, or pGL3-NFAT-RE-luciferase) combined with 200 ng of a specific receptor plasmid (CTR or CLR) and 1000 ng of either RAMP1, RAMP2, RAMP3 expression plasmids, or alternatively, the empty pcDNA3.1 (+) vector. A volume of 5.7 μL of PEI MAX was used in 200 μL of buffer following the manufacturer’s protocol. After 24 h of incubation, the transfected CHO cells were subcultured in 96-well plates and passaged for an additional 24 h before peptide treatment. Then, the medium from the 96-well plates was removed, and the cells were treated with chicken CT/CGRP-containing medium (or untreated medium as a control) at concentrations ranging from 10^−12 M to 10^−6 M for 6 h. Subsequently, the cells were harvested for luciferase assays by lysing them in 1 × passive lysis buffer. To measure the luciferase activity of the cell lysate, 40 μL of luciferase assay reagent (Promega, Madison, WI, USA) was mixed with the cell lysate following the manufacturer’s instructions. The fluorescence activity of the luciferase in each treatment group was measured using a multimode microplate reader (TriStar LB941, Berthold Technologies, Bad Wildbad, Germany). Finally, the fluorescence activity of each treatment group was expressed as a relative increase ratio compared to the control group.

chicken CLR + RAMP3 [5] = test: Calcium pGL3-NFAT-RE-luciferase reporter assay, CLR + RAMP3 in CHO cells; details: 10^−12 M to 10^−6 M, 6 h, mean ± SEM, n = 3, read-out: EC50, calcium signaling pathway
Description: as §1, §2

chicken CLR = test: cAMP/PKA pGL3-CRE-luciferase reporter assay, CLR + pcDNA in CHO cells
Description: as §1, §3

chicken CLR + RAMP1 [6] = test: Calcium pGL3-NFAT-RE-luciferase reporter assay, CLR + RAMP1 in CHO cells; details: 10^−12 M to 10^−6 M, 6 h, mean ± SEM, n = 3, read-out: EC50, calcium signaling pathway
Description: as §1, §2

chicken CLR + RAMP1 [7] = test: MAPK/ERK pGL4-SRE-luciferase reporter assay, CLR + RAMP1 in CHO cells; details: 10^−12 M to 10^−6 M, 6 h, mean ± SEM, n = 3, read-out: EC50, MAPK/ERK signaling pathway
Description: as §1, §2

chicken CLR + RAMP2 [8] = test: MAPK/ERK pGL4-SRE-luciferase reporter assay, CLR + RAMP2 in CHO cells; details: 10^−12 M to 10^−6 M, 6 h, mean ± SEM, n = 3, read-out: EC50, MAPK/ERK signaling pathway
Description: as §1, §2

[9] = tested on: chicken CLR in the absence or presence of RAMPs; test: cAMP/PKA pGL3-CRE-luciferase reporter assay, CLR without and with RAMPs compared
Description: as §1, §3

chicken CLR + RAMPs = test: Western blot CREB phosphorylation, CLR + RAMPs in CHO cells; details: 10 nM, 10 min, n = 3
Description: To assess whether the activation of chicken CTR and CLR, along with the presence of RAMPs, can augment the phosphorylation levels of cAMP response element-binding protein (CREB), 200 ng of CTR or CLR expression plasmids were combined with 1000 ng of chicken RAMPs or an empty pcDNA3.1 (+) vector in a 100 μL buffer. The resulting mixture was then transfected into CHO cells in a 12-well plate (Nunc, Rochester, NY, USA) using 3.6 μL of PEI MAX transfection reagent. After a 24 h incubation period, the cells were exposed to chicken CT (10 nM) or CGRP (10 nM) for 10 min. Subsequently, the culture medium was removed, and the cells were lysed according to the manufacturer’s instructions. Western blot analysis was performed to quantify the levels of CREB and phosphorylated CREB (p-CREB). The optical densities were analyzed and normalized using the software, ImageJ 1.52a (National Institutes of Health, Bethesda, MD, USA). The relative expression of p-CREB/CREB was determined by calculating the ratio of the optical density to that of the control without peptide treatment (0 min).

## calcitonin [CT]
Chicken CTR + RAMP1
  EC50: 0.77 ± 0.07 nM
Chicken CTR + RAMP3
  EC50: > 100 nM
Chicken CLR + RAMP2 [1]; CLR + RAMP2, CHO cells, pGL3-NFAT-RE-luciferase, 10^−12 M to 10^−6 M, 6 h, mean ± SEM, n = 3, read-out: EC50, calcium signaling pathway
  EC50: 1.52 ± 1.32 nM
Chicken CLR + RAMP2 [1]; CLR + RAMP2, pGL3-NFAT-RE-luciferase, CHO cells
  elevation in luciferase activity, calcium signaling: modest elevation in luciferase activity
Chicken CTR [2]
  EC50: 61.1 ± 8.55 nM
Chicken CLR + RAMP3 [3]
  EC50: 1 ± 0.45 nM
Chicken CTR [4]; CTR + pcDNA, CHO cells, pGL3-CRE-luciferase, 10^−12 M to 10^−6 M, 6 h, mean ± SEM, n = 3, read-out: EC50, cAMP/PKA signaling pathway
  EC50: 0.15 ± 0.04 nM
Chicken CTR [4]; independent CTR
  activation (cAMP production), in words: strongly activates
Chicken CLR + RAMP3 [5]
  EC50: 32.3 ± 30.3 nM
Chicken CLR; CLR + pcDNA, CHO cells, pGL3-CRE-luciferase, 10^−12 M to 10^−6 M, 6 h, mean ± SEM, n = 3, read-out: EC50, cAMP/PKA signaling pathway
  EC50: 0.75 ± 0.21 nM
Chicken CLR; independent CLR
  activation (cAMP production), in words: strongly activates
Chicken CLR + RAMP1 [6]
  EC50: 5.81 ± 5.75 nM
Chicken CLR + RAMP1 [7]
  EC50: 0.89 ± 0.2 nM
Chicken CLR + RAMP2 [8]
  EC50: 0.38 ± 0.09 nM
[9]; CHO cells, pGL3-CRE-luciferase
  effect of RAMP co-expression on sensitivity of CLR: a slight reduction in chicken CLR’s sensitivity to CT in the presence of RAMP1
[9]; CLR without/with RAMPs
  rank order of receptor sensitivity: CLR ≈ CLR + RAMP2 ≈ CLR + RAMP3 > CLR + RAMP1
[9]; CLR without/with RAMPs, read-out: EC50 range over CLR, CLR + RAMP2, CLR + RAMP3, CLR + RAMP1
  EC50: 0.75 to 3.3 nM
Chicken CLR + RAMPs
  CREB phosphorylation (p-CREB/CREB vs. control, 0 min): significantly enhanced the CREB phosphorylation
